Test results reported in patent US20210023089A1, “Compositions Useful for Treating Herpes Simplex Keratitis, and Methods Using Same” (priority 2013, published 2021).

Key:
cleaved caspase-3 = experiment: Cleaved caspase-3 immunofluorescence in HSV-1 infected explanted human corneas; format: cell-based; conditions: 10 μM, 48 hpi, vs mock-treated
Experimental: Human corneas were obtained from the Lions Eye Bank of Delaware Valley. Rabbit corneas were excised from intact fresh eyeballs of young (8-12 weeks) albino rabbits (Pel-Freez Biologicals, Rogers, Ark.). Protocol (Alekseev et al., 2012, J Vis Exp 69:e3631) for ex vivo corneal culture, infection, and treatment was followed closely. Briefly, corneoscleral buttons were excised and rinsed in PBS containing 200 U/mL penicillin and 200 μg/mL streptomycin. The endothelial concavity was filled with culture medium containing 1% low melting temperature agarose. The corneas were cultured epithelial side up in MEM medium supplemented with nonessential amino acids (1×), 2 mM […], 200 U/mL penicillin, and 200 μg/mL streptomycin. The next day, they were infected with 1×10^4 plaque forming units (PFU)/cornea of strain KOS HSV-1 for 1 hour, rinsed, and overlaid with fresh medium. Drug treatments were administered at the same concentrations as for cultured cells. For KU-55933 bioavailability assessment, corneas were treated with bleomycin (200 μg/mL) for 1 hour. The epithelial cell layer was collected by scraping to isolate DNA or protein. […] Treatment toxicity was assessed by briefly staining the cornea with fluorescein (1% wt/vol in PBS) and imaging the epithelial defects with 464-nm wavelength blue light (LDP LLC, Carlstadt, N.J.). […]

McKrae strain HSV-1 = experiment: Mouse model of ocular HSV-1 keratitis, disease scoring; format: in vivo, C57BL/6J mice; conditions: 200 μM topical
Experimental: Four-week-old female C57BL/6J mice were anesthetized with isoflurane, and their left eyes were scarified in a 4×4 crosshatch pattern with a 28-gauge needle. […] strain HSV-1 was applied in 1 μL inoculum volume at 8×10^5 PFU/eye and the eyelid gently massaged. The infection was allowed to develop for 24 hours, at which point treatments were initiated. KU-55933 was delivered to the corneas dissolved in PBS to a concentration of 200 μM. Control treatments constituted an equivalent amount of DMSO (0.2% vol/vol) in PBS drops. Treatments were administered every 4 hours for 1 full day and then every 8 hours for the remainder of the experiment. Ocular disease severity was assessed at every 24-hour period postinfection. Two disease parameters were scored based on a number scale (Jose et al., 2013, Invest Ophthalmol Vis Sci 54:1070-1079). Briefly, stromal keratitis was scored as 1+, cloudiness, some iris detail visible; 2+, iris detail obscured; 3+, cornea totally opaque; and 4+, corneal perforation. Blepharitis was scored as 1+, puffy eyelids; 2+, puffy eyelids with some crusting; 3+, eye swollen shut with severe crusting; and 4+, eye completely swollen shut and crusted over.

hTCEpi cells = experiment: Colony survival assay; format: cell-based, human
Experimental: hTCEpi cells were treated with KU-55933 (10 μM) or DMSO for 24 hours, trypsinized, counted, and plated into 6-cm dishes at 50 cells/dish. After 2 weeks, colonies were fixed with 10% buffered formalin, stained with 0.01% crystal violet, rinsed, and counted.

Row | Compound | cleaved caspase-3 staining (apoptosis) in corneal epithelium (cleaved caspase-3) | difference in blepharitis score versus control group (McKrae strain HSV-1) | stromal disease severity (stromal keratitis score) (McKrae strain HSV-1; started 24 hpi, every 4 hours for 1 day then every 8 hours) | stromal keratitis state by day 5 postinfection, on average (McKrae strain HSV-1; all control mice developed corneal perforation) | survival and proliferation of cultured cells after treatment (hTCEpi cells; 2 full weeks following a 24-hour treatment) | clonal survival compared to mock-treated controls (hTCEpi cells; hTCEpi cells, KU-55933 10 μM continuously for 24 hours)
1 | NC(=O)c1ccc2[nH]c(-c3ccc(Oc4ccc(Cl)cc4)cc3)nc2c1 [Chk2 inhibitor II, 2-(4-(4-chlorophenoxy)phenyl)-1H-benzimidazole-5-carboxamide] | abrogated |  |  |  |  | 
2 | O=c1cc(-c2cccc3c2Sc2ccccc2S3)oc(N2CCOCC2)c1 [KU-55933, 2-(morpholin-4-yl)-6-(thianthren-1-yl)-pyran-4-one] | reduction | not statistically significant | notable and statistically significant reduction | only corneal opacity | able to survive and proliferate well | roughly 70%
